Data on eight molecules can be found in patent US4966914A, “Oculoselective beta-blockers as antiglaucoma agents” (E. I. Du Pont de Nemours and Company, priority 1988, dated 1990).

Read-outs that look alike come from different tables or passages of the source.

For one data set, the target named is T1, ATRIA (Cavia porcellus, UniProt H0W3H1).
T1 construct: ATRIA; from tissue
As to the kind of experiment: In vitro potency (pA2), beta-blocking, atria. It is filed as cell-based. Particulars: Tables 2 and 4; read-out: In-vitro potency pA2 (converted). On the procedure:
(§1) The in vitro potency (pA2), in vivo potency and duration of action (DOA) of the compounds of the present invention are recorded in Tables 2 to 4. These pharmacological activities were determined using the methods described in U.S. patent 4,582,855 issued Apr.

The next data set relates to beta-blocking effects. Description: In vivo beta-blocking potency and duration of action (DOA). The conditions noted are these: for DOA (duration of action): Tables 2 and 4. On the procedure:
as §1

A short description of data set [1]: Ocular bioavailability in rabbits. It is filed as in vivo, New Zealand White Rabbits. Particulars: for Tmax: rabbit, topical or ocular. On the procedure:
The ocular bioavailability of Timolol and compound 1 (monopivaloyl ester prodrug of compound 2) was evaluated in New Zealand White Rabbits. Fifty μL of a solution of 0.25% Timolol or 0.5% compound 1 (both in the same vehicle) were administered onto the cornea of both eyes of 48 rabbits (24 rabbits/compound). At 5, 15, 30, 60, 120, 180, 240, and 360 minutes after dosing, 3 rabbits (6 eyes)/compound were killed. The cornea, aqueous humor (AH), iris-ciliary body complex (I-CBC) were quickly removed from the eyes, weighed and processed to determine tissue levels of Timolol or compound 1 and compound 2.

Data set [2] concerns isoproterenol-induced changes in heart rate or diastolic blood pressure. Description: Effect on systemic beta-blockade upon topical administration (isoproterenol-induced changes in heart rate or diastolic blood pressure). It is filed as in vivo, Mongrel dogs. Particulars: for Diastolic blood pressure (DBP) / Heart rate (HR): Table 1, 0.5%. On the procedure:
Mongrel dogs were anesthetized and control readings were made at -45 and -30 minutes. Following the -30 minute reading, an infusion of isoproterenol (0.5 μg/kg/min) was begun and maintained during the course of the experiment. Two readings of pretreatment isoproterenol responses were made at […] and at zero minutes.
At zero minutes, a 50 μL sample of test compound was administered topically. […] Heart rate was obtained directly from the strip chart recording.

Where [3] appears, read: 50 μL, 0.25% solution, single topical application.
Setting [4] is: 15 min post-treatment, isoproterenol infusion.
The mark [5] stands for this setting: 30 min post-treatment, isoproterenol infusion.
Where [6] appears, read: 45 min post-treatment, isoproterenol infusion.
Where [7] appears, read: 60 min post-treatment (dose), isoproterenol infusion.
[8] abbreviates: 75 min post-treatment, isoproterenol infusion.
The mark [9] stands for this setting: 90 min post-treatment, isoproterenol infusion.
The mark [10] stands for this setting: 105 min post-treatment, isoproterenol infusion.
The mark [11] stands for this setting: 120 min post-treatment (dose), isoproterenol infusion.
[12] abbreviates: 135 min post-treatment, isoproterenol infusion.
[13] abbreviates: 150 min post-treatment, isoproterenol infusion.
The mark [14] stands for this setting: 165 min post-treatment, isoproterenol infusion.
Setting [15] is: 180 min post-treatment, isoproterenol infusion.
The mark [16] stands for this setting: Table 1 summary, given as "down".

T1 sequence (H0W3H1 1-470): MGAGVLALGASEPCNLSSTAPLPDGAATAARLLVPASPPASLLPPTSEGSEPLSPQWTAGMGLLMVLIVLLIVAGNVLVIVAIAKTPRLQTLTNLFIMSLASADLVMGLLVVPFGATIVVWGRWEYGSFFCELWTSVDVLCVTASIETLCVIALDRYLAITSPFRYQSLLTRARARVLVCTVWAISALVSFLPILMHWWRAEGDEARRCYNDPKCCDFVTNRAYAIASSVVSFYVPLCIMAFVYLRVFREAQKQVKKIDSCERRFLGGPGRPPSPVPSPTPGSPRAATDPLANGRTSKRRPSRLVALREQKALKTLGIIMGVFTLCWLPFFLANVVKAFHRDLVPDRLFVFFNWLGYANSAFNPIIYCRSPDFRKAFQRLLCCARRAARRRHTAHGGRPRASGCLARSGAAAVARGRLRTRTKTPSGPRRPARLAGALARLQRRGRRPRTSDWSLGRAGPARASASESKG

Turning to `Cc1cc(O)c(O)cc1C(=O)OCC(O)CNC(C)(C)CNC(=O)C(C)C` (stereo not drawn), on ATRIA, the Kb is 6.31 nM. Besides, in the data set on beta-blocking effects, the “DOA (duration of action)” value came to 42 min.
For the molecule `Cc1cc(O)c(O)cc1C(=O)OCC(O)CNC(C)(C)CNC(=O)C1CCCCC1` (stereo not drawn), the Kb at ATRIA was 3.98 nM. Besides, the “DOA (duration of action), second value after the slash” value in the data set on beta-blocking effects (Table 2, cell prints 31/>60) is > 60 min. The “DOA (duration of action)” value in the data set on beta-blocking effects was 31 min.
Consider `Cc1cc(O)c(O)cc1C(=O)OCC(O)CNC(C)(C)CNC(=O)N1CCOCC1` (stereo not drawn), for which, on ATRIA, the Kb is 2 nM. In addition, in the data set on beta-blocking effects, the “DOA (duration of action)” value stood at 60 min.
With `Cc1cc(O)c(O)cc1C(=O)OCC(O)CNC(C)(C)CNC(=O)C1CCOCC1` (stereo not drawn), the Kb at ATRIA was 5.01 nM. The “DOA (duration of action)” value with beta-blocking effects stood at 26 min.
For `CCOc1cc(O)c(O)cc1C(=O)OCC(O)CNC(C)(C)CNC(=O)C(C)C` (stereo not drawn) [OEt], in the data set with beta-blocking effects, the “DOA (duration of action)” value was 22 min.
Still for that read-out and setting: the figure for `COc1cc(O)c(O)cc1C(=O)OCC(O)CNC(C)(C)CNC(=O)C(C)C` (stereo not drawn) [OMe] is 30 min.
For `CC(C)(C)NC[C@H](O)COc1nsnc1N1CCOCC1` [Timolol, reference compound], the “Absorption across the cornea” value in data set [1] (0.25% Timolol or 0.5% compound 1, topical) is “rapidly absorbed across the cornea into the AH and I-CBC”. Also, the “Area under the concentration time curve (AUC0-240'), AH” value in data set [1] (AH, 0-240 min, 0.25% Timolol or 0.5% compound 1) is given as 9,022 ng/100 μL/min. Also, in data set [1] (AH, 0.25% Timolol or 0.5% compound 1), the “Peak level in aqueous humor (AH)” value is on record as 131 ng/100 μL. Also, the “Area under the concentration time curve (AUC0-240'), I-CBC” value in data set [1] (I-CBC, 0-240 min, 0.25% Timolol or 0.5% compound 1) was determined as 533 ng/50 mg/min. Further, the “Peak level in iris-ciliary body complex (I-CBC)” value in data set [1] (I-CBC, 0.25% Timolol) was determined as 58 ng/50 mg. The “Area under the concentration time curve (AUC0-240'), cornea” value in data set [1] (cornea, 0-240 min, 0.25% Timolol or 0.5% compound 1) is recorded as 68,293 ng/50 mg/min. In data set [1] (cornea, 50 μL onto cornea, 0.25% Timolol or 0.5% compound 1), this molecule had a Peak cornea level of 770 ng/50 mg. For the same molecule, the Tmax is 30 min in data set [1] (aqueous humor, AH, 0.25% Timolol or 0.5% compound 1, read-out: Time of peak level in aqueous humor (AH) (converted)); 30 min in data set [1] (iris-ciliary body, I-CBC, 0.25% Timolol, read-out: Time of peak level in I-CBC (converted)); 5 min in data set [1] (cornea, 0.25% Timolol or 0.5% compound 1, read-out: Time of peak level in cornea (converted)). The “Antagonism of diastolic blood pressure response to isoproterenol” value in data set [2] (setting [3]) was “long lasting antagonism”. For the same molecule, in data set [2] (setting [3]), the “Effect on heart rate response to isoproterenol” value is on record as “significant inhibitory effect”. For the same molecule, in data set [2] (50 μL, 0.25% solution, single topical application, from-to), the “Diastolic blood pressure response to isoproterenol” value is given as 72-107 mmHg. For the same molecule, the “Diastolic blood pressure (DBP)” value in data set [2] (0 min, ISO only) was 72 mmHg; in data set [2] (setting [4]), 93 mmHg; in data set [2] (setting [5]) it was 94 mmHg; in data set [2] (setting [6]), 96 mmHg; in data set [2] (setting [7]), 99 mmHg; in data set [2] (setting [8]), 102 mmHg. In addition, the “Diastolic blood pressure (DBP)” value turned out to be 103 mmHg in data set [2] (setting [9]); 104 mmHg in data set [2] (setting [10]); 105 mmHg in data set [2] (setting [11]); 107 mmHg in data set [2] (setting [12]); 107 mmHg in data set [2] (setting [13]); 105 mmHg in data set [2] (setting [14]). Moreover, in data set [2] (setting [15]), the “Diastolic blood pressure (DBP)” value is given as 107 mmHg. Also, the “Heart rate (HR)” value in data set [2] (0 min, ISO only) was 197 bpm; in data set [2] (setting [4]), 175 bpm; in data set [2] (setting [5]), 158 bpm; in data set [2] (setting [6]), 155 bpm; in data set [2] (setting [7]), 157 bpm; in data set [2] (setting [8]), 157 bpm. Also, the “Heart rate (HR)” value in data set [2] (setting [9]) was 152 bpm; in data set [2] (setting [10]) it was 153 bpm; in data set [2] (setting [11]) it was 157 bpm; in data set [2] (setting [12]), 154 bpm; in data set [2] (setting [13]) it was 153 bpm; in data set [2] (setting [14]), 153 bpm. The “Heart rate (HR)” value in data set [2] (setting [15]) was 159 bpm; in data set [2] (-30 min, baseline), 144 bpm. Also, the “Summary: BP” value in data set [2] (Table 1 summary, from ISO only to end of experiment) is 71-107 mmHg. The “Summary: BP change” value in data set [2] (setting [16]) is 35 mmHg. Besides, the “Summary: HR change” value in data set [2] (setting [16]) came to 38 bpm. In addition, the “Systemic beta-blockade” value in data set [2] (four topical applications, 50 μL, 0.25% solution, 60 minute intervals) was “prolonged systemic beta-blockade”.
In the case of `Cc1cc(O)c(O)cc1C(=O)OCC(O)CNC(C)(C)CNC(=O)C1CCOC1` (stereo not drawn) [drawing 25], on ATRIA, the Kb was 1.58 nM. The “DOA (duration of action)” value in the data set with beta-blocking effects is 49 min.
